Measured values published in PMC7467771, “Lipophilic Arginine Esters: The Gateway to Preservatives without Side Effects” (Molecular Pharmaceutics, 2020).
Read-outs that look alike come from different tables or passages of the source.

Tests used:
Caco-2 cells = test: resazurin assay, cytotoxicity; type: cell-based; settings: Caco-2, 4 h incubation; for EC50 (concentration causing 50% cell death): calculated from cell viability data
Protocol: The resazurin assay was used to determine the cytotoxic potential of Arg-esters according to a previous method with some minor modifications.[15] Caco-2 cells were seeded in a 24-well cell culture plate at 25 000 cells per well density and kept in an incubator at 37 °C under a 95% relative humidity environment and 5% CO2 level. Minimum essential medium (MEM) supplemented with streptomycin (0.1 mg […]), penicillin (100 units […]), and fetal calf serum (FCS) 10% (v/v) was used for growing cells. During a growth period of 14 days, the medium was replaced every other day. On the day of the experiment, test solutions of Arg-OL and Arg-DT esters were prepared in 25 mM HBS (HEPES buffered saline) buffer (pH 7.4) in the concentration range of 1000–3000 μg mL^–1. For comparison, the same concentrations of BAC and cetrimide were also prepared in HBS. HBS without any addition was used as a positive control, and Triton X-100 (2%, v/v) in HBS was used as a negative control. The growth medium from all wells of the cell culture plate was removed, and cells were washed three times with HBS preheated at 37 °C. Each test solution and controls were then added to individual wells in a volume of 500 μL, and the cell culture plate was incubated under the same conditions. After 4 h, the solution from each well was removed, and cells were washed with HBS (pH 7.4) preheated at 37 °C. Then, 500 μL of resazurin (2.2 mM) per well was added and incubated for further 3 h under the same conditions. Afterward, the fluorescence of the supernatant from each well was measured at the excitation wavelength of 540 nm and an emission wavelength of 590 nm. Cell viability was calculated by the equation: [drawing 4]

[1] = tested on: Bacillus subtilis ATCC 6633; test: disk diffusion method; type: cell-based; settings: test solution 10 mg mL^–1, disks about 6 mm, overnight 37 °C
Protocol: (§1) Following bacterial strains were used for antimicrobial susceptibility testing: Escherichia coli ATCC 25922, Staphylococcus aureus ATCC 29213, Bacillus subtilis ATCC 6633, and Enterococcus faecalis ATCC 19433, which were obtained from the American Type Culture Collection (ATCC, Virginia, USA).
(§2) The disk diffusion method was used for the initial assessment of the antimicrobial activity of Arg-esters. Mueller Hinton agar (MHA, Biomerieux) medium was prepared according to the manufacturer protocol and poured into Petri dishes. All testing microorganisms were dissolved in saline and set to a 0.5 McFarland standard turbidity. This corresponds to a bacterial concentration of 1.5 × 10^8 colony-forming units per milliliter (CFU mL^–1). The bacterial suspension was then swabbed over solidified MHA Petri dishes ensuring homogeneous distribution. The test solutions of Arg-OL, Arg-DT, BAC, and cetrimide were prepared in water with 10% (v/v) DMSO at a concentration of 10 mg mL^–1. Water with 10% (v/v) DMSO was used as a negative control. The diffusion disks of about 6 mm in diameter were prepared from Whatman filter paper. After immersing disks in the above-prepared test solutions, they were placed on MHA plates already swabbed with different bacteria. After overnight incubation of Petri dishes at 37 °C, clear zones of bacterial growth inhibition around disks were measured.

[2] = tested on: Enterococcus faecalis ATCC 19433; test: disk diffusion method; type: cell-based; settings: test solution 10 mg mL^–1, disks about 6 mm, overnight 37 °C
Protocol: as §1, §2

[3] = tested on: Escherichia coli ATCC 25922; test: disk diffusion method; type: cell-based; settings: test solution 10 mg mL^–1, disks about 6 mm, overnight 37 °C
Protocol: as §1, §2

[4] = tested on: Staphylococcus aureus ATCC 29213; test: disk diffusion method; type: cell-based; settings: test solution 10 mg mL^–1, disks about 6 mm, overnight 37 °C
Protocol: as §1, §2

[5] = tested on: Bacillus subtilis ATCC 6633; test: MIC testing by the microdilution method; type: cell-based; settings: microdilution, overnight 37 °C, tested 5000 to 5 μg mL^–1
Protocol: as §1
(§3) The MIC is the lowest concentration of a substance that leads to a clearly visible growth inhibition after a defined incubation period. To evaluate the MIC of Arg-DT, Arg-OL, BAC, and cetrimide, a microdilution test was performed according to the guidelines of the Clinical and Laboratory Standards Institute.[19] First of all, similarly, as for the disk diffusion test, microorganisms were dissolved in saline and set to a 0.5 McFarland standard turbidity. This corresponds to a bacterial concentration of 1.5 × 10^8 colony-forming units per milliliter (CFU mL^–1); 50 μL of the bacterial suspension was added to 10 mL of Mueller Hinton Bouillon (MHB, Becton Dickinson, New Jersey, USA). The stock solutions were prepared as follows: the test compounds Arg-OL, Arg-DT, BAC, and cetrimide were dissolved in water with 10% (v/v) DMSO at a concentration of 10 mg mL^–1. The obtained solutions were used to prepare serial dilutions. The tested concentration for each substance ranged from 5000 to 5 μg mL^–1. Each test sample was added to a flat-bottomed tissue plate well in the volume of 75 μL. The first well of the tissue plate containing 75 μL of water with 10% (v/v) DMSO instead of any test sample was used as a positive control. Finally, 75 μL of the bacterial suspension was added to each well, and the plates were incubated at 37 °C overnight.
(§4) Before measuring the optical density (OD), plates were shaken for 15 min at 250 rpm. The OD was measured using the Bio-Rad 680 microplate reader (Hercules, California, USA) at a wavelength of 490 nm. Inhibition of bacterial growth was defined as a reduction of growth for at least 5 log units. Experiments were performed three times under analogous conditions for each bacterial strain and each tested sample.

[6] = tested on: Enterococcus faecalis ATCC 19433; test: MIC testing by the microdilution method; type: cell-based; settings: microdilution, overnight 37 °C, tested 5000 to 5 μg mL^–1
Protocol: as §1, §3, §4

[7] = tested on: Escherichia coli ATCC 25922; test: MIC testing by the microdilution method; type: cell-based; settings: microdilution, overnight 37 °C, tested 5000 to 5 μg mL^–1
Protocol: as §1, §3, §4

[8] = tested on: Staphylococcus aureus ATCC 29213; test: MIC testing by the microdilution method; type: cell-based; settings: microdilution, overnight 37 °C, tested 5000 to 5 μg mL^–1
Protocol: as §1, §3, §4

[9] = octanol/water partition coefficient (log P) by TNBS assay; type: physicochemical; settings: octanol/water mixture 1:1 v/v; mean, n = 3
Protocol: Log P of Arg and both Arg-esters were determined using an already described method.[15] Each compound was dissolved in an octanol/water mixture (1:1, v/v). Afterward, octanol and water phases were separated by a high-speed mini centrifuge (Fisher Scientific, Illinois USA), and the concentration of each compound in each phase was determined by the TNBS assay. For this, a 50 μL volume from each phase was diluted 10 times with 0.1 M sodium bicarbonate (pH 8.5) containing 40% (v/v) isopropyl alcohol. After dilution, 250 μL of the TNBS reagent (0.01%, v/v) prepared in 0.1 M sodium bicarbonate (pH 8.5) was added to each sample that was incubated at 37 °C. After 2 h, the reaction was stopped by adding 250 μL of 10% (m/v) SDS and 125 μL of 1 M HCl. The absorbance of each sample was measured at 335 nm using a Spark multifunctional microplate reader (Tecan Austria, GmbH). The logarithm of the octanol/water absorbance ratio was expressed as log P for each sample.

red blood cells = settings: cited from earlier work
E. coli = settings: against E. coli; cited from earlier work
red blood cells (RBC) = test: hemolysis study; type: cell-based; settings: human RBC, 1 h, 37 °C, PBS pH 7.4
Protocol: The hemolysis test was performed with red blood cells (RBC) to evaluate the potential toxic effect of Arg-surfactants on human cells.[18] Human RBC concentrate was kindly donated by the Tirol Kliniken GmbH, Innsbruck, Austria, and stored at 4 °C until use. RBC concentrate (0.556 mL) was freshly diluted by adding sterile Dulbecco’s PBS (pH 7.4) (1.944 mL) before the test to obtain an equivalent amount of whole blood (EWB). Then EWB was 50 times diluted in sterile Dulbecco’s PBS (pH 7.4). The diluted blood on visual inspection was turbid and settled down upon leaving undisturbed, indicating no cell lysis. Arg-surfactant stock solutions were prepared in the concentration range of 10–5000 μg mL^–1 in PBS. For comparison, BAC and cetrimide solutions were prepared in the same concentration range in PBS. For the assay, 10 μL of each test sample was mixed with 190 μL of diluted blood, resulting in the testing final concentrations of 0.5–250 μg mL^–1. For the positive control, 10 μL of 20% v/v Triton X-100 and, for the negative control, 10 μL of sterile Dulbecco’s PBS were mixed with 190 μL of diluted blood. All samples and controls were incubated for 1 h at 37 °C with shaking. After centrifugation at 10 000 rpm for 60 s, aliquots of 100 μL were withdrawn from the supernatants and transferred to a 96-well plate. Absorbance was measured at a wavelength of 420 nm. The extent of hemolysis as a percentage was determined by using the following equation: [drawing 6]

Molecule	EC50 (concentration causing 50% cell death) (Caco-2 cells)	zones of inhibition [1]	zones of inhibition [2]	zones of inhibition [3]	zones of inhibition [4]	minimum inhibitory concentration [5]	minimum inhibitory concentration [6]	minimum inhibitory concentration [7]	minimum inhibitory concentration [8]	other results
benzalkonium chloride [BAC, reference compound]	20 μg mL^–1	23 mm	20 mm	19 mm	21 mm	5 μg mL^–1	5 μg mL^–1	10 μg mL^–1	5 μg mL^–1	
N=C(N)NCCC[C@H](N)C(=O)O [arginine, L-Arginine]										logP [9]: -1.9
CCCCCC(=O)N[C@@H](CCCNC(=N)N)C(=O)OC [CAM, caproyl arginine methyl ester]										HC50 (red blood cells; reported in the literature): 38.5 μg mL^–1
CCCCCCCC(=O)N[C@@H](CCCNC(=N)N)C(=O)OCC [Nα-octanoyl arginine ethyl ester]										MIC (not effective at the highest tested concentration) (E. coli): > 256 μg mL^–1
cetrimide [reference compound]	20 μg mL^–1	19 mm	19 mm	12 mm	19 mm	5 μg mL^–1	5 μg mL^–1	20 μg mL^–1	5 μg mL^–1	cell viability (Caco-2 cells; all tested concentrations (1000–3000 μg mL^–1)): < 10%; HC50 (concentration causing lysis of 50% red blood cells) (red blood cells (RBC)): 23 μg mL^–1
CCCCCCCCCCCC(=O)N[C@@H](CCCNC(=N)N)C(=O)OC [LAM, lauroyl arginine methyl ester]										MIC (E. coli): 128 μg mL^–1; HC50 (red blood cells): 20.8 μg mL^–1
